US20240066027A1 (DOMAIN THERAPEUTICS, priority 2020, published 2024)

biological target: T1, human PAR-2 (hPAR-2) receptor expressed in HEK-293 T cells in an endogenous manner (Homo sapiens, UniProt P55085); test: In vitro human PAR-2 functional antagonist activity using calcium assays (Fluo4AM, FLIPR Tetra); type: cell-based; settings: HEK-293 T cells stimulated by an EC80 of the 2-Furoyl-LIGRLO-NH2 peptide after 10 min incubation with compound; 20 concentrations, duplicate, two independent experiments
T1 construct: human PAR-2 (hPAR-2) receptor expressed in HEK-293 T cells in an endogenous manner; endogenous in cells; host or cells: HEK-293 T cells
T1 sequence (P55085 26-397): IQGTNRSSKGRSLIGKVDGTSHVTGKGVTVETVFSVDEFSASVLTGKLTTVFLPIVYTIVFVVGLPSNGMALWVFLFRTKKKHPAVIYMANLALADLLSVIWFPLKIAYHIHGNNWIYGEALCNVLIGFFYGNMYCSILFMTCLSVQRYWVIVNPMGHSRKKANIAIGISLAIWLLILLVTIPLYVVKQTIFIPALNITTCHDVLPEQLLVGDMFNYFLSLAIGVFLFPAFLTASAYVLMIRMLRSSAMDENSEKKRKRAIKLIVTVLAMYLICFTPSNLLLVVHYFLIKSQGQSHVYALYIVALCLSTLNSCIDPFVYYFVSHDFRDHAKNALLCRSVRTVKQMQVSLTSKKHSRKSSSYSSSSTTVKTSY
In short: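 Fluo4AM-loaded HEK-293 T cells were exposed to compound for 10 min to read agonist effect. They were then stimulated with an EC80 of 2-Furoyl-LIGRLO-NH2 and intracellular calcium was recorded for 5 more min on FLIPR. Antagonism was scored against buffer basal and EC80 agonist-alone signals.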

Row | IC50 [nM] | SMILES
1 | < 20 | CC(C)N1CNC(=O)C12CCN(C(=O)c1ccc3c(-c4ccc(Cl)c(F)c4)cn(C(C)(C)C)c3n1)CC2 [Example 207, 8-(1-(tert-butyl)-3-(4-chloro-3-fluorophenyl)-1H-pyrrolo[2,3-b]pyridine-6-carbonyl)-1-isopropyl-1,3,8-triazaspiro[4.5]decan-4-one]
2 | < 20 | Cc1cc(N2CCN(C(=O)c3ccc4c(-c5ccc(Cl)c(F)c5)cn(C(C)(C)C)c4n3)CC2)nc(C)c1C(=O)O [Example 99, 6-(4-(1-(tert-butyl)-3-(4-chloro-3-fluorophenyl)-1H-pyrrolo[2,3-b]pyridine-6-carbonyl)piperazin-1-yl)-2,4-dimethylnicotinic acid]
3 | < 20 | CC1(C)C(=O)N(CC(N)=O)CCN1C(=O)c1ccc2c(-c3ccc(Cl)c(F)c3)cn(C(C)(C)C)c2n1 [Example 5, 2-(4-(1-(tert-butyl)-3-(4-chloro-3-fluorophenyl)-1H-pyrrolo[2,3-b]pyridine-6-carbonyl)-3,3-dimethyl-2-oxopiperazin-1-yl)acetamide]
4 | 20 to 10000 | COc1ccc(Cn2cc(-c3ccc(Cl)c(F)c3)c3ccc(C(=O)N4CCNC(=O)C4(C)C)nc32)cc1 [Example 27, 4-(3-(4-chloro-3-fluorophenyl)-1-(4-methoxybenzyl)-1H-pyrrolo[2,3-b]pyridine-6-carbonyl)-3,3-dimethylpiperazin-2-one]
5 | 20 to 10000 | Cc1cc(NC2CCN(C(=O)c3ccc4c(-c5ccc(Cl)c(F)c5)cn(C(C)(C)C)c4n3)CC2C)nc(C)c1C(=O)O (stereo not drawn) [Example 198, 6-((1-(1-(tert-butyl)-3-(4-chloro-3-fluorophenyl)-1H-pyrrolo[2,3-b]pyridine-6-carbonyl)-3-methylpiperidin-4-yl)amino)-2,4-dimethylnicotinic acid]
6 | < 20 | Cc1c(-c2ccc(Cl)c(F)c2)c2ccc(C(=O)N3CCNC(=O)C3(C)C)nc2n1CC(C)C [Example 38, 4-(3-(4-chloro-3-fluorophenyl)-1-isobutyl-2-methyl-1H-pyrrolo[2,3-b]pyridine-6-carbonyl)-3,3-dimethylpiperazin-2-one]
7 | > 10000 | Cc1cc(N2CCC3(CCN(C(=O)c4ccc5c(-c6ccc(Cl)c(F)c6)cn(C(C)(C)C)c5n4)C3)C2)nc(C)c1C(=O)O (stereo not drawn) [Example 128, 6-(7-(1-(tert-butyl)-3-(4-chloro-3-fluorophenyl)-1H-pyrrolo[2,3-b]pyridine-6-carbonyl)-2,7-diazaspiro[4.4]nonan-2-yl)-2,4-dimethylnicotinic acid]
8 | < 20 | COCCn1cc(-c2ccc(Cl)c(F)c2)c2ccc(C(=O)N3CCN(c4cc(C)c(C(=O)O)c(C)n4)CC3(C)C)nc21 [Example 134, 6-(4-(3-(4-chloro-3-fluorophenyl)-1-(2-methoxyethyl)-1H-pyrrolo[2,3-b]pyridine-6-carbonyl)-3,3-dimethylpiperazin-1-yl)-2,4-dimethyinicotinic acid]
9 | 20 to 10000 | CC(C)(C)n1cc(-c2ccc(Cl)c(F)c2)c2ccc(C(=O)N3CCC(CC(=O)O)CC3)nc21 [Example 125, 2-(1-(1-(tert-butyl)-3-(4-chloro-3-fluorophenyl)-1H-pyrrolo[2,3-b]pyridine-6-carbonyl)piperidin-4-yl)acetic acid]
10 | < 20 | Cc1cc(N2CCN(C(=O)c3ccc4c(n3)c(C(C)(C)C)nn4-c3ccc(Cl)c(F)c3)C(C)(C)C2)nc(C)c1C(=O)O [Example 59, 6-(4-(3-(tert-butyl)-1-(4-chloro-3-fluorophenyl)-1H-pyrazolo[4,3-b]pyridine-5-carbonyl)-3,3-dimethylpiperazin-1-yl)-2,4-dimethylnicotinic acid]
11 | 20 to 10000 | CN1C(=O)N(C)C2(CCN(C(=O)c3ccc4c(-c5ccc(Cl)c(F)c5)cn(C(C)(C)C)c4n3)CC2)C1=O [Example 197, 8-(1-(tert-butyl)-3-(4-chloro-3-fluorophenyl)-1H-pyrrolo[2,3-b]pyridine-6-carbonyl)-1,3-dimethyl-1,3,8-triazaspiro[4.5]decane-2,4-dione]
12 | 20 to 10000 | CC(C)(C)n1cc(-c2ccc(Cl)c(F)c2)c2ccc(C(=O)N3CCNC(=O)CC3)nc21 [Example 18, 1-(1-(tertbutyl)-3-(4-chloro-3-fluorophenyl)-1H-pyrrolo[2,3-b]pyridine-6-carbonyl)-1,4-diazepan-5-one]
13 | < 20 | CNC(=O)CN1CCN(C(=O)c2ccc3c(-c4ccc(Cl)c(F)c4)cn(C(C)(C)C)c3n2)C(C)(C)C1=O [Example 6, 2-(4-(1-(tert-butyl)-3-(4-chloro-3-fluorophenyl)-1H-pyrrolo[2,3-b]pyridine-6-carbonyl)-3,3-dimethyl-2-oxopiperazin-1-yl)-N-methylacetamide]
14 | 20 to 10000 | CC1(C)C(=O)NCCN1C(=O)c1ccc2c(-c3ccc(Cl)c(F)c3)cn(CCN3CCCC3=O)c2n1 [Example 41, 4-(3-(4-chloro-3-fluorophenyl)-1-(2-(2-oxopyrrolidin-1-yl)ethyl)-1H-pyrrolo[2,3-b]pyridine-6-carbonyl)-3,3-dimethylpiperazin-2-one]
15 | 20 to 10000 | Cc1cc(N2CCN(C(=O)c3ccc4c(-c5ccc(Cl)c(F)c5)cn(C[C@@H]5CCOC5)c4n3)C(C)(C)C2)nc(C)c1C(=O)O [Example 182, (S)-6-(4-(3-(4-chloro-3-fluorophenyl)-1-((tetrahydrofuran-3-yl)methyl)-1H-pyrrolo[2,3-b]pyridine-6-carbonyl)-3,3-dimethylpiperazin-1-yl)-2,4-dimethylnicotinic acid]
16 | > 10000 | Cc1cc(N2CCN(C(=O)c3cc(C)c4c(-c5ccc(Cl)c(F)c5)cn(CC(C)C)c4n3)CC2)nc(C)c1C(=O)O [Example 189, 6-(4-(3-(4-chloro-3-fluorophenyl)-1-isobutyl-4-methyl-1H-pyrrolo[2,3-b]pyridine-6-carbonyl)piperazin-1-yl)-2,4-dimethylnicotinic acid]
17 | 20 to 10000 | CC(C)Cn1cc(-c2cccc(C#N)c2)c2ccc(C(=O)N3CCNC(=O)C3(C)C)nc21 [Example 117, 3-(6-(2,2-dimethyl-3-oxopiperazine-1-carbonyl)-1-isobutyl-1H-pyrrolo[2,3-b]pyridin-3-yl)benzonitrile]
18 | 20 to 10000 | Cc1cc(N2CCN(C(=O)c3ccc4c(-c5ccc(Cl)c(F)c5)cn(C(C)(C)CO)c4n3)C(C)(C)C2)nc(C)c1C(=O)O [Example 102, 6-(4-(3-(4-chloro-3-fluorophenyl)-1-(1-hydroxy-2-methylpropan-2-yl)-1H-pyrrolo[2,3-b]pyridine-6-carbonyl)-3,3-dimethylpiperazin-1-yl)-2,4-dimethylnicotinic acid]
19 | > 10000 | Cc1cc(N[C@H]2CCN(C(=O)c3ccc4c(-c5ccc(Cl)c(F)c5)cn(C(C)(C)C)c4n3)C2)nc(C)c1C(=O)O [Example 154, (S)-6-((1-(1-(tert-butyl)-3-(4-chloro-3-fluorophenyl)-1H-pyrrolo[2,3-b]pyridine-6-carbonyl)pyrrolidin-3-yl)amino)-2,4-dimethylnicotinic acid]
20 | > 10000 | CC(C)Cc1nn(-c2ccc(Cl)c(F)c2)c2ccc(C(=O)N3CCC4(CC3)C(=O)NCN4c3ccccc3)nc12 [Example 94, 8-(1-(4-chloro-3-fluorophenyl)-3-isobutyl-1H-pyrazolo[4,3-b]pyridine-5-carbonyl)-1-phenyl-1,3,8-triazaspiro[4.5]decan-4-one]
21 | < 20 | Cc1cc(N2CCN(C(=O)c3cnc4c(-c5ccc(Cl)c(F)c5)cn(CC(C)C)c4n3)C(C)(C)C2)nc(C)c1C(=O)O [Example 190, 6-(4-(7-(4-chloro-3-fluorophenyl)-5-isobutyl-5H-pyrrolo[2,3-b]pyrazine-3-carbonyl)-3,3-dimethylpiperazin-1-yl)-2,4-dimethylnicotinic acid]
22 | 20 to 10000 | Cc1cc(N2CCN(C(=O)c3ccc4c(-c5ccc(Cl)c(F)c5)c(C)n(C)c4n3)C(C)(C)C2)nc(C)c1C(=O)O [Example 119, 6-(4-(3-(4-chloro-3-fluorophenyl)-1,2-dimethyl-1H-pyrrolo[2,3-b]pyridine-6-carbonyl)-3,3-dimethylpiperazin-1-yl)-2,4-dimethylnicotinic acid]
23 | > 10000 | Cc1cc2c(nc1C(=O)N1CCNC(=O)C1(C)C)c(CC(C)C)nn2-c1ccc(Cl)c(F)c1 [Example 81]
24 | > 10000 | CC(C)(C)n1cc(-c2ccc(Cl)c(F)c2)c2ccc(C(=O)N3CC4(COC4)C3)nc21 [Example 10, (1-(tert-butyl)-3-(4-chloro-3-fluorophenyl)-1H-pyrrolo[2,3-b]pyridin-6-yl)(2-oxa-6-azaspiro[3.3]heptan-6-yl)methanone]
25 | 20 to 10000 | Cn1cc(-c2ccc(Cl)c(F)c2)c2ccc(C(=O)N3CCNC(=O)C3(C)C)nc21 [Example 34, 4-(3-(4-chloro-3-fluorophenyl)-1-methyl-1H-pyrrolo[2,3-b]pyridine-6-carbonyl)-3,3-dimethylpiperazin-2-one]
26 | 20 to 10000 | CC(C)(C)c1nn(-c2ccc(Cl)c(F)c2)c2ncc(C(=O)N3CCNC(=O)C3(C)C)cc12 [Example 80, 4-(3-(tert-butyl)-1-(4-chloro-3-fluorophenyl)-1H-pyrazolo[3,4-b]pyridine-5-carbonyl)-3,3-dimethylpiperazin-2-one]

Row | SMILES | IC50 [nM]
27 | CC(C)(C)n1cc(-c2ccc(Cl)c(F)c2)c2ccc(C(=O)N3[C@@H]4CC[C@H]3COC4)nc21 [Example 19, ((1R,5S)-3-oxa-8-azabicyclo[3.2.1]octan-8-yl)(1-(tertbutyl)-3-(4-chloro-3-fluorophenyl)-1H-pyrrolo[2,3-b]pyridin-6-yl)methanone] | 20 to 10000
